{"source": "patent US11452762B2", "about": "“Method of treating rhinitis with C-type natriuretic peptides” (IGISU Co., Ltd., priority 2009, dated 2022)", "key": {"[1]": {"system": "patients with rhinitis, allergic rhinitis in particular", "assay": "Administration tests of CNP, BNP or ANP nasal solution preparations in rhinitis patients (case studies)", "type": "in vivo, human", "details": "for Symptom improvement (severity level before → after application): 50 μg/ml nasal solution, one spray (130 μl, 6.5 μg) in each nostril once or twice a day, each value one patient (Case); for Effect on nasal itching / tickling feeling (in words): 50 μg/ml twice a day; for Time after application until slight improvement in nasal itching: initial application; for Overall effect on rhinitis symptoms (in words): patients with rhinitis, BNP versus ANP", "experimental": "Diagnosis, evaluation of symptoms, and examination of the CNP nasal drop preparations, BNP nasal drop preparations and ANP nasal drop preparation were performed as follows. The subjects are patients in whom conventional external medicines such as steroids are not sufficiently effective, or patients in whom the use of steroids must be avoided due to local side effects such as nasal irritation and dryness. Diagnosis and treatment of these subjects were performed by the present applicant as a medical doctor. Severity evaluation of symptoms of allergic rhinitis was performed, in principle, in accordance with “Guidelines for medical care of nasal allergies, 2009 edition” (edited by the committee for creation of guidelines for medical care of nasal allergies), by classifying into 5 stages as shown below. Here, “mixed type” refers to the cases wherein both of the sneezing attack or rhinorrhea and the nasal occlusion were presented with the same severity. […] In the above table, evaluation scores for sneezing fit, rhinorrhea and nasal occlusion are as described in the table below. […] Administration tests of the nasal solution preparations of the present invention were performed by, in principle, spraying the CNP nasal solution, BNP nasal solution or ANP nasal solution used to fill a nasal spraying device twice a day at awakening time and before bedtime, with one spray in each nostril at each time. […] Prior to the application of CNP preparations, BNP preparations or ANP preparation, the subjects' history was obtained, scratch tests for allergens were performed and diagnosis was made."}, "pollen allergy": {"system": "pollen allergy", "details": "after 2 weeks of application, spraying once a day; cited from earlier work"}, "[2]": {"details": "50 μg/ml, initial or continued application, listed as ANP nasal solution"}}, "note": "“Also recorded” adds a separate entry of the source.", "data": [{"compound": "CC[C@H](C)[C@@H]1NC(=O)[C@H](CCCNC(=N)N)NC(=O)[C@H](CC(=O)O)NC(=O)[C@H](CCSC)NC(=O)[C@H](CCCCN)NC(=O)[C@H](CCCNC(=N)N)NC(=O)CNC(=O)[C@H](Cc2ccccc2)NC(=O)[C@@H](NC(=O)CNC(=O)[C@H](CO)NC(=O)CNC(=O)[C@H](CCC(N)=O)NC(=O)[C@@H](NC(=O)[C@H](CCSC)NC(=O)[C@H](CCCCN)NC(=O)[C@@H]2CCCN2C(=O)[C@@H](N)CO)C(C)C)CSSC[C@@H](C(=O)N[C@@H](CCCCN)C(=O)N[C@H](C(=O)N[C@@H](CC(C)C)C(=O)N[C@@H](CCCN=C(N)N)C(=O)N[C@@H](CCCN=C(N)N)C(=O)N[C@@H](Cc2cnc[nH]2)C(=O)O)C(C)C)NC(=O)CNC(=O)[C@H](CC(C)C)NC(=O)CNC(=O)[C@H](CO)NC(=O)[C@H](CO)NC(=O)[C@H](CO)NC(=O)[C@H](CO)NC1=O", "note": "[BNP nasal solution preparation, human BNP-32]", "values": [{"measurement": "Local irritation symptoms / side effects", "setting": "[1]; 50 μg/ml nasal spray", "value": "later. No irritation"}, {"measurement": "Local irritation symptoms / side effects", "setting": "[1]; 50 μg/ml nasal spray, listed as BNP nasal solution", "value": "local irritation symptoms did not occur; also recorded: no irritation symptoms were observed"}, {"measurement": "Local irritation symptoms / side effects", "setting": "[1]; 100 μg/ml nasal spray", "value": "it does not exhibit such side effects"}, {"measurement": "Local irritation symptoms / side effects", "setting": "[1]; 200 μg/ml nasal spray, listed as BNP nasal solution", "value": "no local irritation symptoms or feelings of discomfort"}]}, {"compound": "CC[C@H](C)[C@@H]1NC(=O)[C@H](CCCNC(=N)N)NC(=O)[C@H](CC(=O)O)NC(=O)[C@H](CC(C)C)NC(=O)[C@H](CCCCN)NC(=O)[C@H](CC(C)C)NC(=O)CNC(=O)[C@H](Cc2ccccc2)NC(=O)[C@@H](NC(=O)CNC(=O)[C@H](CCCCN)NC(=O)[C@H](CO)NC(=O)[C@H](CC(C)C)NC(=O)CN)CSSC[C@@H](C(=O)O)NC(=O)CNC(=O)[C@H](CC(C)C)NC(=O)CNC(=O)[C@H](CO)NC(=O)[C@H](CCSC)NC(=O)[C@H](CO)NC(=O)CNC1=O", "note": "[CNP nasal solution preparation, human CNP-22]", "values": [{"measurement": "Local irritation symptoms / side effects", "setting": "[1]; 100 μg/ml nasal spray", "value": "side effects such as local irritation symptoms were not observed; also recorded: No local irritation symptoms were observed; also recorded: No local side effects such as irritation, as well as no systemic side effects such as drowsiness were observed; also recorded: without irritation or local side effects; also recorded: without any irritation symptoms"}, {"measurement": "Permeability of the nasal solution (in words)", "setting": "[1]; 100 μg/ml nasal spray", "value": "good and good permeability"}]}, {"compound": "C[C@@H]1C[C@H]2[C@@H]3CCC4=CC(=O)C=C[C@]4(C)[C@@]3(Cl)[C@@H](O)C[C@]2(C)[C@@]1(OC(=O)c1ccco1)C(=O)CCl", "note": "[Mometasone furoate hydrate]", "values": [{"measurement": "Degree of improvement in nasal occlusion", "setting": "pollen allergy", "value": "30-40%"}, {"measurement": "Degree of improvement in overall symptoms", "setting": "pollen allergy", "value": "40-50%"}]}, {"compound": "human ANP-28 [ANP nasal solution preparation]", "values": [{"measurement": "Symptom improvement (severity level before → after application)", "setting": "[1]", "value": "Severe → severe"}, {"measurement": "Symptom improvement (severity level before → after application)", "setting": "[1]; listed as ANP nasal solution", "value": "severe before the ANP application to still severe"}, {"measurement": "Effect on nasal itching / tickling feeling (in words)", "setting": "[1]", "value": "improved slightly."}, {"measurement": "Effect on nasal itching / tickling feeling (in words)", "setting": "[1]; listed as ANP nasal solution", "value": "slightly improved"}, {"measurement": "Time after application until slight improvement in nasal itching", "setting": "[1]; 50 μg/ml", "value": "At 1 hr later, a slight"}, {"measurement": "Time after application until slight improvement in nasal itching", "setting": "[1]; 50 μg/ml, listed as ANP nasal solution", "value": "One hour later"}, {"measurement": "Effect on nasal occlusion (in words)", "setting": "[1]; 50 μg/ml, initial or continued application", "value": "sensation was not improved."}, {"measurement": "Effect on nasal occlusion (in words)", "setting": "[1]; [2]", "value": "not improved; also recorded: no changes"}, {"measurement": "Effect on rhinorrhea / runny nose (in words)", "setting": "[1]; [2]", "value": "did not stop; also recorded: no changes; also recorded: not improved; also recorded: No improvement"}, {"measurement": "Number of nose blows under application", "setting": "[1]; 50 μg/ml, once or twice a day", "value": "approximately 20 times a day"}, {"measurement": "Persistence of the effects of an application (in words)", "setting": "[1]; 50 μg/ml, one application, listed as ANP nasal solution", "value": "persistence was short"}, {"measurement": "Time after application until nasal passages opened", "setting": "[1]; 50 μg/ml, subjective, listed as ANP nasal solution", "value": 20, "unit": "min"}, {"measurement": "Overall effect on rhinitis symptoms (in words)", "setting": "[1]", "value": "no immediate effect was observed"}, {"measurement": "Overall effect on rhinitis symptoms (in words)", "setting": "[1]; listed as ANP preparations", "value": "no improvements or worsening"}]}]}
